# Measured values as given in paper PMC9161374 (Science Translational Medicine, 2022).
# Where “and” joins values, the source holds several entries; their conditions need not be identical. Equal values may be shown once.
# Legend:
# [1] = system: SARS-CoV-2 replicon system (pBAC-SARS-CoV-2-Replicon-Luc); experiment: microbe, parasite or virus in culture; type: cell-based; conditions: Severe acute respiratory syndrome coronavirus 2, HEK-293T, 60 h
# SARS-CoV-2 (B.1) = experiment: Anti-SARS-CoV-2 activity in Vero E6 cells (viral yield by qRT-PCR); type: cell-based
# [2] = system: SARS-CoV-2 (Beta, B.1.351); experiment: microbe, parasite or virus in culture; type: cell-based; conditions: for % Inhibition: beta
# [3] = system: SARS-CoV-2 (Delta, B.1.617.2); experiment: microbe, parasite or virus in culture; type: cell-based; conditions: for % Inhibition: delta
# [4] = system: SARS-CoV-2 (B.1) in Huh7 cells; experiment: Anti-SARS-CoV-2 activity in Huh7 cells (viral yield by qRT-PCR); type: cell-based; conditions: B.1, MOI 0.05, 48 h
# [5] = CCK-8 cell viability assay; type: cell-based, African green monkey; conditions: African green monkey; Vero E6 cells, 48 h, CCK8
# Method in brief: (§1)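 Vero E6 cells, 20,000/well, exposed to compound at 0–200 μM (0, 0.01, 0.1, 1, 5, 10, 50, 75, 100, 200 μM) for 48 h; viability read by CCK-8 and expressed as percentage versus drug concentration, mean ± SD.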
# Vero E6 cells = experiment: CCK-8 cell viability assay; type: cell-based, African green monkey; conditions: individual replicate values, Fig.S4
# Method in brief: as §1
structure (smiles),measurement,setting,value
N#C[C@@]1(c2ccc3c(N)ncnn23)O[C@H](COC(=O)c2ccccc2)[C@@H](O)[C@H]1O [ATV013],EC50,"[1]; read-out: EC50 (Confidence 95%), replicon",497 nM
same,EC90,"[1]; read-out: EC90 (Confidence 95%), replicon",1140 nM
same,% Inhibition,"SARS-CoV-2 (B.1); 0.1 μM, replicates, sheet Fig.S3",0%
same,% Inhibition,"SARS-CoV-2 (B.1); 0.5 μM, replicates, sheet Fig.S3",0%
same,% Inhibition,"SARS-CoV-2 (B.1); 1 μM, replicates, sheet Fig.S3",54.9033%
same,% Inhibition,"SARS-CoV-2 (B.1); 2 μM, replicates, sheet Fig.S3",83.4601%
same,% Inhibition,"SARS-CoV-2 (B.1); 5 μM, replicates, sheet Fig.S3",91.8254%
same,% Inhibition,"SARS-CoV-2 (B.1); 10 μM, replicates, sheet Fig.S3",91.2053%
same,% Inhibition,"SARS-CoV-2 (B.1); B.1, 0.01 uM, Vero E6, replicates",0%
same,% Inhibition,"SARS-CoV-2 (B.1); B.1, 0.1 uM, Vero E6, replicates",0%
same,% Inhibition,"SARS-CoV-2 (B.1); B.1, 0.25 uM, Vero E6, replicates",0%
same,% Inhibition,"SARS-CoV-2 (B.1); B.1, 0.5 uM, Vero E6, replicates",0%
same,% Inhibition,"SARS-CoV-2 (B.1); B.1, 1 uM, Vero E6, replicates",0%
same,% Inhibition,"SARS-CoV-2 (B.1); B.1, 5 uM, Vero E6, replicates, 5 µM",99.7536%
same,% Inhibition,"SARS-CoV-2 (B.1); B.1, 10 uM, Vero E6, replicates, 10 µM",99.9918%
same,% Inhibition,"SARS-CoV-2 (B.1); B.1, 50 uM, Vero E6, replicates, 50 µM",99.9922%
same,inhibition at 0.1 µM,"SARS-CoV-2 (B.1); Severe acute respiratory syndrome coronavirus 2, Vero C1008, 0.1 μM, replicates, sheet Fig.S3",0%
same,inhibition at 0.5 µM,"SARS-CoV-2 (B.1); Severe acute respiratory syndrome coronavirus 2, Vero C1008, 0.5 μM, replicates, sheet Fig.S3",0%
same,inhibition at 1 µM,"SARS-CoV-2 (B.1); Severe acute respiratory syndrome coronavirus 2, Vero C1008, 1 μM, replicates, sheet Fig.S3",62%
same,inhibition at 2 µM,"SARS-CoV-2 (B.1); Severe acute respiratory syndrome coronavirus 2, Vero C1008, 2 μM, replicates, sheet Fig.S3",83.8%
same,inhibition at 5 µM,"SARS-CoV-2 (B.1); Severe acute respiratory syndrome coronavirus 2, Vero C1008, 5 μM, replicates, sheet Fig.S3",93.6%
same,inhibition at 10 µM,"SARS-CoV-2 (B.1); Severe acute respiratory syndrome coronavirus 2, Vero C1008, 10 μM, replicates, sheet Fig.S3",93.5%
same,inhibition at 0.01 µM,"SARS-CoV-2 (B.1); Severe acute respiratory syndrome coronavirus 2, Vero C1008, B.1, 0.01 uM, Vero E6, replicates",0%
same,inhibition at 0.1 µM,"SARS-CoV-2 (B.1); Severe acute respiratory syndrome coronavirus 2, Vero C1008, B.1, 0.1 uM, Vero E6, replicates",0%
same,inhibition at 0.25 µM,"SARS-CoV-2 (B.1); Severe acute respiratory syndrome coronavirus 2, Vero C1008, B.1, 0.25 uM, Vero E6, replicates",0%
same,inhibition at 0.5 µM,"SARS-CoV-2 (B.1); Severe acute respiratory syndrome coronavirus 2, Vero C1008, B.1, 0.5 uM, Vero E6, replicates",0%
same,inhibition at 1 µM,"SARS-CoV-2 (B.1); Severe acute respiratory syndrome coronavirus 2, Vero C1008, B.1, 1 uM, Vero E6, replicates",0%
same,inhibition at 5 µM,"SARS-CoV-2 (B.1); Severe acute respiratory syndrome coronavirus 2, Vero C1008, B.1, 5 uM, Vero E6, replicates",99.5%
same,inhibition at 10 µM,"SARS-CoV-2 (B.1); Severe acute respiratory syndrome coronavirus 2, Vero C1008, B.1, 10 uM, Vero E6, replicates",100%
same,inhibition at 50 µM,"SARS-CoV-2 (B.1); Severe acute respiratory syndrome coronavirus 2, Vero C1008, B.1, 50 uM, Vero E6, replicates",100%
same,EC90,"SARS-CoV-2 (B.1); Severe acute respiratory syndrome coronavirus 2, Vero C1008, read-out: EC90 (Confidence 95%)",2870 nM
same,EC50,"SARS-CoV-2 (B.1); Severe acute respiratory syndrome coronavirus 2, Vero C1008, MOI 0.05, 48 h",2260 nM
same,EC50,"[2]; Severe acute respiratory syndrome coronavirus 2, Vero C1008, 48 h, read-out: EC50 in Vero E6 cells, SARS-CoV-2 (Beta, B.1.351)",2430 nM
same,inhibition at 0.01 µM,"[2]; Severe acute respiratory syndrome coronavirus 2, Vero C1008, beta, 0.01 uM, Vero E6, replicates",0%
same,inhibition at 0.1 µM,"[2]; Severe acute respiratory syndrome coronavirus 2, Vero C1008, beta, 0.1 uM, Vero E6, replicates",0%
same,inhibition at 0.25 µM,"[2]; Severe acute respiratory syndrome coronavirus 2, Vero C1008, beta, 0.25 uM, Vero E6, replicates",0%
same,inhibition at 0.5 µM,"[2]; Severe acute respiratory syndrome coronavirus 2, Vero C1008, beta, 0.5 uM, Vero E6, replicates",0%
same,inhibition at 1 µM,"[2]; Severe acute respiratory syndrome coronavirus 2, Vero C1008, beta, 1 uM, Vero E6, replicates",0%
same,inhibition at 2 µM,"[2]; Severe acute respiratory syndrome coronavirus 2, Vero C1008, beta, 2 uM, Vero E6, replicates",23.7%
same,inhibition at 5 µM,"[2]; Severe acute respiratory syndrome coronavirus 2, Vero C1008, beta, 5 uM, Vero E6, replicates",99.7%
same,inhibition at 10 µM,"[2]; Severe acute respiratory syndrome coronavirus 2, Vero C1008, beta, 10 uM, Vero E6, replicates",99.9%
same,inhibition at 50 µM,"[2]; Severe acute respiratory syndrome coronavirus 2, Vero C1008, beta, 50 uM, Vero E6, replicates",99.9%
same,EC90,"[2]; Severe acute respiratory syndrome coronavirus 2, Vero C1008, read-out: EC90 (Confidence 95%), Vero-E6, Beta B.1.351",3090 nM
same,% Inhibition,"[2]; 0.01 uM, Vero E6, replicates",0%
same,% Inhibition,"[2]; 0.1 uM, Vero E6, replicates",0%
same,% Inhibition,"[2]; 0.25 uM, Vero E6, replicates",0%
same,% Inhibition,"[2]; 0.5 uM, Vero E6, replicates",0%
same,% Inhibition,"[2]; 1 uM, Vero E6, replicates",0%
same,% Inhibition,"[2]; 2 uM, Vero E6, replicates",12.3832%
same,% Inhibition,"[2]; 5 uM, Vero E6, replicates",99.5222%
same,% Inhibition,"[2]; 10 uM, Vero E6, replicates",99.9634%
same,% Inhibition,"[2]; 50 uM, Vero E6, replicates",99.9455%
same,EC50,"[3]; Severe acute respiratory syndrome coronavirus 2, Vero C1008, 48 h, read-out: EC50 in Vero E6 cells, SARS-CoV-2 (Delta, B.1.617.2)",965 nM
same,inhibition at 0.01 µM,"[3]; Severe acute respiratory syndrome coronavirus 2, Vero C1008, delta, 0.01 uM, Vero E6, replicates",0%
same,inhibition at 0.1 µM,"[3]; Severe acute respiratory syndrome coronavirus 2, Vero C1008, delta, 0.1 uM, Vero E6, replicates",0%
same,inhibition at 0.25 µM,"[3]; Severe acute respiratory syndrome coronavirus 2, Vero C1008, delta, 0.25 uM, Vero E6, replicates",0%
same,inhibition at 1 µM,"[3]; Severe acute respiratory syndrome coronavirus 2, Vero C1008, delta, 1 uM, Vero E6, replicates",50.4%
same,inhibition at 2 µM,"[3]; Severe acute respiratory syndrome coronavirus 2, Vero C1008, delta, 2 uM, Vero E6, replicates",93.4%
same,inhibition at 5 µM,"[3]; Severe acute respiratory syndrome coronavirus 2, Vero C1008, delta, 5 uM, Vero E6, replicates",96.1%
same,inhibition at 10 µM,"[3]; Severe acute respiratory syndrome coronavirus 2, Vero C1008, delta, 10 uM, Vero E6, replicates",99.7%
same,inhibition at 50 µM,"[3]; Severe acute respiratory syndrome coronavirus 2, Vero C1008, delta, 50 uM, Vero E6, replicates",100%
same,EC90,"[3]; Severe acute respiratory syndrome coronavirus 2, Vero C1008, read-out: EC90 (Confidence 95%), Vero-E6, Delta B.1.617.2",1410 nM
same,% Inhibition,"[3]; 0.01 uM, Vero E6, replicates",0%
same,% Inhibition,"[3]; 0.1 uM, Vero E6, replicates",0%
same,% Inhibition,"[3]; 0.25 uM, Vero E6, replicates",0%
same,% Inhibition,"[3]; 0.5 uM, Vero E6, replicates",0.1843% and 0%
same,% Inhibition,"[3]; 1 uM, Vero E6, replicates",60.4565%
same,% Inhibition,"[3]; 2 uM, Vero E6, replicates",90.993%
same,% Inhibition,"[3]; 5 uM, Vero E6, replicates",93.9334%
same,% Inhibition,"[3]; 10 uM, Vero E6, replicates",98.4346%
same,% Inhibition,"[3]; 50 uM, Vero E6, replicates",99.9058%
same,EC50,"[4]; Severe acute respiratory syndrome coronavirus 2, Huh-7, read-out: EC50 (Confidence 95%) in Huh7 cells",964 nM
same,EC90,"[4]; Severe acute respiratory syndrome coronavirus 2, Huh-7, read-out: EC90 (Confidence 95%) in Huh7 cells",1320 nM
same,CC50 at 48 h,[5],> 50000 nM
same,cell viability (% of control),"Vero E6 cells; 1 μM compound, 1 µM",66.6435 % of control and 71.881 % of control and 81.6609 % of control
same,cell viability (% of control),"Vero E6 cells; 2 μM compound, 2 µM",62.1939 % of control and 100.479 % of control and 98.8104 % of control
same,cell viability (% of control),"Vero E6 cells; 5 μM compound, 5 µM",79.1116 % of control and 101.73 % of control and 106.643 % of control
same,cell viability (% of control),"Vero E6 cells; 10 μM compound, 10 µM",79.4361 % of control and 86.4349 % of control and 92.6458 % of control
same,cell viability (% of control),"Vero E6 cells; 20 μM compound, 20 µM",76.9332 % of control and 94.4535 % of control and 115.728 % of control
same,cell viability (% of control),"Vero E6 cells; 50 μM compound, 50 µM",73.9991 % of control and 102.436 % of control and 88.29 % of control
